Reference: patent US20060159746A1, “Compositions comprising fatty acids and amino acids” (priority 2003, published 2006)
Marks after values point to notes of the source that are not given here.

Columns and labels:
Type in all cases: in vivo
[1] = Body weight and weight gain of Lepr db/db mice fed different fatty acid diets for 6 wks; settings: for Body wt at 6 wks: 6 wks after dietary intervention; for Wt gain at 6 wks: 6 wks of diet
Method: (§1) C57BLKS/J-Lepr^db/db male mice (4 wks of age) were obtained from Jackson Laboratory, Bar Harbor, Me. Mice were initially maintained on commercial chow for 2 wks, followed by a purified stabilization diet providing 40% en as fat and 2% en as linoleic acid (LA, 18:2n-6) for another 2 wks. At 8 wks of age, a baseline oral glucose tolerance test was conducted. Based on their OGTT profile, mice were evenly distributed among 6 groups (n=6 per each group) and were fed one of 6 experimental diets designed to establish the relative importance of specific fatty acid supplementation on ameliorating insulin resistance.
(§2) Table 1 gives the predicted fatty acid profile (% en) for the 6 experimental diets. The control diet, based on butter and palm oil blend, provided 40% en as fat with 2% en as LA. […] These Lepr db/db mice were fed one of the above 6 diets for 6 weeks.
(§3) Body weights of animals were recorded each week. Insulin tolerance testing was performed after 6 weeks of dietary intervention. Mice (non-fasted) were injected intraperitoneally with 1.5 U/kg human insulin and blood glucose concentrations were determined at 0, 15, 30 and 60 min after insulin injection by tail bleeding, using a glucometer. A week later, fasting blood samples were collected by cardiac puncture, under Co2/O2 anesthesia, for analysis of plasma insulin, triglyceride (TG) and total cholesterol (TC). […] Plasma insulin was determined using the RIA kit (Linco research Inc, MO).

Lepr db/db mice [2] = experiment: Insulin tolerance testing (blood glucose after i.p. human insulin) after 6 weeks of dietary intervention; settings: 1.5 U/kg human insulin i.p.
Method: as §1, §2, §3

Lepr db/db mice [3] = experiment: Fasting plasma lipids (TG, TC) in Lepr db/db mice fed different fatty acids; settings: after diet feeding
Method: as §1, §2, §3

Lepr db mouse = experiment: OGT (1 g glucose/kg) combined with oral administration of the active ingredient; postprandial glucose and insulin; set-up: Serum insulin levels: unit not given here; settings: for Serum glucose levels: in mg/dL (unit assumed)
Method: Acute effects of a nutritional formula, Starlix® and 4-HI on glycemic control in the type 2 diabetes animal model (Lepr db mouse) were studied. Animals underwent an OGT (1 g glucose/kg) combined with oral administration of the active ingredient. The following groups were tested: (A) placebo (2% Tween 80, 20 ml/kg), (B) 4-HI (100 mg/kg), (C) guar gum (150 mg/kg), (D) Starlix® (65 mg/kg), (E) Starlix®+4-HI, and (F) Starlix®+guar gum. Postprandial glucose and insulin were studied at 0, 30, 60 and 90 min.

Row | SMILES | Body wt at 6 wks [1] [g] | Wt gain at 6 wks [1] [g] | Mean blood glucose values (percentage of intial) after insulin administration (Lepr db/db mice [2]; 0 min, non-fasted) | Mean blood glucose values (percentage of intial) after insulin administration (Lepr db/db mice [2]; 15 min) | Mean blood glucose values (percentage of intial) after insulin administration (Lepr db/db mice [2]; 30 min) | Mean blood glucose values (percentage of intial) after insulin administration (Lepr db/db mice [2]; 60 min) | Fasting plasma TC (Lepr db/db mice [3]) | Fasting plasma TG (Lepr db/db mice [3]) | Serum insulin levels (Lepr db mouse; 0 min of OGT) | Serum glucose levels (Lepr db mouse; 0 min of OGT) | Serum insulin levels (Lepr db mouse; 30 min of OGT) | Serum glucose levels (Lepr db mouse; 30 min of OGT) | Serum insulin levels (Lepr db mouse; 60 min of OGT) | Serum glucose levels (Lepr db mouse; 60 min of OGT) | Serum insulin levels (Lepr db mouse; 90 min of OGT) | Serum glucose levels (Lepr db mouse; 90 min of OGT) | Hypoglycemic effect, in words (Lepr db mouse; serum glucose in OGT)
1 | CCCCC/C=C\C/C=C\CCCCCCCC(=O)O [LA, linoleic acid] | 43.9 ± 5.4 | 2.5 ± 4.3 | 100 percentage of intial | 135 percentage of intial | 115 percentage of intial | 85 percentage of intial | 313 ± 28 ^ mg/dl | 120 ± 24^a,b mg/dl |  |  |  |  |  |  |  |  | 
2 | CC/C=C\C/C=C\C/C=C\C/C=C\C/C=C\C/C=C\CCC(=O)O [DHA, docosahexaenoic acid] | 48.9 ± 3.8 | 6.1 ± 5.2 | 100 percentage of intial | 131 percentage of intial | 120 percentage of intial | 99 percentage of intial | 288 ± 39 ^ mg/dl | 101 ± 14^a,c mg/dl |  |  |  |  |  |  |  |  | 
3 | CC(C)[C@H]1CC[C@H](C(=O)N[C@H](Cc2ccccc2)C(=O)O)CC1 [Starlix, nateglinide] |  |  |  |  |  |  |  |  | 9.8 | 210 | 11.18 | 456.7 | 5.38 | 497.3 | 3.75 | 599 | significant hypoglycemic effect at T90
4 | CC/C=C\C/C=C\C/C=C\CCCCCCCC(=O)O [LNA, linolenic acid] | 50.5 ± 2.4 | 8.3 ± 4 | 100 percentage of intial | 138 percentage of intial | 127 percentage of intial | 100 percentage of intial | 326 ± 13^ mg/dl | 142 ± 27^b mg/dl |  |  |  |  |  |  |  |  | 
5 | C[C@@H]([C@H](C)O)[C@H](N)C(=O)O [4HI, 4-hydroxyisoleucine] |  |  |  |  |  |  |  |  | 8.17 | 227.7 | 11.27 | 473.7 | 6.41 | 494.7 | 4.63 | 584 | 
